# According to patent US11572590B2, “Methods for evaluating tumor cell spheroids using 3D microfluidic cell culture device” (Dana-Farber Cancer Institute, Inc., priority 2017, dated 2023):
# Like-named read-outs stand apart in the source and are kept apart here.
# What was measured:
# Experiment in all cases: SelectScreen Kinase Profiling, single point inhibition and IC50 for off-target kinases
# Format in all cases: biochemical
# off-target kinases [1] = target: T1, off-target kinases (Homo sapiens, UniProt P15735); conditions: PHKG2, ATP Km app, ZLYTE
# T1 sequence (P15735 1-406): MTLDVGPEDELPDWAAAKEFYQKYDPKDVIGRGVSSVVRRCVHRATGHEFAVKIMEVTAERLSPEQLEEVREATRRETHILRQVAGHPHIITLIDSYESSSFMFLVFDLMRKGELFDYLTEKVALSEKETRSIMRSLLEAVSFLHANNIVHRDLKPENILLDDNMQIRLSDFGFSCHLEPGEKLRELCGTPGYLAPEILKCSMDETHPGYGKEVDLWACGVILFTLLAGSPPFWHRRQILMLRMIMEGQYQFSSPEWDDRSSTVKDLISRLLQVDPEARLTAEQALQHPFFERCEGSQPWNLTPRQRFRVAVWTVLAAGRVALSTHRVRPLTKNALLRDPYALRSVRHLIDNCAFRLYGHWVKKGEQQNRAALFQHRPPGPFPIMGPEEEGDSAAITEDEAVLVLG
# off-target kinases [2] = target: off-target kinases (Homo sapiens, UniProt O43293); conditions: DAPK3 (ZIPK), ATP Km app, ZLYTE
# off-target kinases (Homo sapiens, UniProt O43293), sequence (O43293 whole entry): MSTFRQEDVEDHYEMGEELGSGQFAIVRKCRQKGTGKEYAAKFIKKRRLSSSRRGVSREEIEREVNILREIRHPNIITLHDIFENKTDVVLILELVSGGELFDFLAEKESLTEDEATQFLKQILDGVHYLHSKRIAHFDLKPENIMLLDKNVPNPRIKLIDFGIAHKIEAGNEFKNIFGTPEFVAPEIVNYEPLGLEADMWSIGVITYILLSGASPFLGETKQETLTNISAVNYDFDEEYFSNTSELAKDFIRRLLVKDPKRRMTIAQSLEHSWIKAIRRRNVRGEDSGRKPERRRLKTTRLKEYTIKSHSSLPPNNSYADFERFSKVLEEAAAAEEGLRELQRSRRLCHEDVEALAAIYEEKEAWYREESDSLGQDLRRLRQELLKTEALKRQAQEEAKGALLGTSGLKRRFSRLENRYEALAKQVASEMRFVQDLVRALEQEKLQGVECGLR
# off-target kinases [3] = target: off-target kinases (Homo sapiens, UniProt Q02763, Y1108F); conditions: TEK (TIE2) Y1108F, LanthaScreen Binding
# off-target kinases (Homo sapiens, UniProt Q02763, Y1108F), sequence (Q02763 23-1124 Y1108F): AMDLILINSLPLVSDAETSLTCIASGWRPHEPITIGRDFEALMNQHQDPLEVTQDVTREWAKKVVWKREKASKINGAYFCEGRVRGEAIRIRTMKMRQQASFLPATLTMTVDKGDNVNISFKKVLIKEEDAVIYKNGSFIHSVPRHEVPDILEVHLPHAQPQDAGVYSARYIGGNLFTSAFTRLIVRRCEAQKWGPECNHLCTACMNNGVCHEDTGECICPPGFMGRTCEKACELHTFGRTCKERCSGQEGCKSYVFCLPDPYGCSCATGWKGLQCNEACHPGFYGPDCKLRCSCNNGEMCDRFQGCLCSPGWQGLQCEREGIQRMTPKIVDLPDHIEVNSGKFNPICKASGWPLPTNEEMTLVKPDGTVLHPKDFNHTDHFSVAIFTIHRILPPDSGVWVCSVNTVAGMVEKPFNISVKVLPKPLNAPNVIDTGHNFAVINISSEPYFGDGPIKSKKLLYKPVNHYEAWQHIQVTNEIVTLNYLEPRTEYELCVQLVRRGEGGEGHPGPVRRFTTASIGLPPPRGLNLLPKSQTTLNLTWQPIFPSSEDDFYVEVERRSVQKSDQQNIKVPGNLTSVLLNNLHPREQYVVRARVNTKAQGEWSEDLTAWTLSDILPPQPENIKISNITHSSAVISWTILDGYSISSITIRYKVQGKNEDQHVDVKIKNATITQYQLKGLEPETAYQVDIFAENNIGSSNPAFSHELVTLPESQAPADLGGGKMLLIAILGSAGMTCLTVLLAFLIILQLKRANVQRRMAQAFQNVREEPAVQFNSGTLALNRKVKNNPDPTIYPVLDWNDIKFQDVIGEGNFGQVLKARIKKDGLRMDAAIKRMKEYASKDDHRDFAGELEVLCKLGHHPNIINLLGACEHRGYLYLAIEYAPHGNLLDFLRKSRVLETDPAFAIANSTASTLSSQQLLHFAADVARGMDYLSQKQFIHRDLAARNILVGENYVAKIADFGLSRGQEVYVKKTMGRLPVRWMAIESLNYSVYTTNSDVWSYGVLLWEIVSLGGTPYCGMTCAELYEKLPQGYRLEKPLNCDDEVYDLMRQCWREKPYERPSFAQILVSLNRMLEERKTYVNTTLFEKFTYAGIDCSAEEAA
# off-target kinases [4] = target: off-target kinases (Homo sapiens, UniProt Q9UM73, R1275Q); conditions: ALK R1275Q (mutant), LanthaScreen Binding
# off-target kinases (Homo sapiens, UniProt Q9UM73, R1275Q), sequence (Q9UM73 19-1620 R1275Q): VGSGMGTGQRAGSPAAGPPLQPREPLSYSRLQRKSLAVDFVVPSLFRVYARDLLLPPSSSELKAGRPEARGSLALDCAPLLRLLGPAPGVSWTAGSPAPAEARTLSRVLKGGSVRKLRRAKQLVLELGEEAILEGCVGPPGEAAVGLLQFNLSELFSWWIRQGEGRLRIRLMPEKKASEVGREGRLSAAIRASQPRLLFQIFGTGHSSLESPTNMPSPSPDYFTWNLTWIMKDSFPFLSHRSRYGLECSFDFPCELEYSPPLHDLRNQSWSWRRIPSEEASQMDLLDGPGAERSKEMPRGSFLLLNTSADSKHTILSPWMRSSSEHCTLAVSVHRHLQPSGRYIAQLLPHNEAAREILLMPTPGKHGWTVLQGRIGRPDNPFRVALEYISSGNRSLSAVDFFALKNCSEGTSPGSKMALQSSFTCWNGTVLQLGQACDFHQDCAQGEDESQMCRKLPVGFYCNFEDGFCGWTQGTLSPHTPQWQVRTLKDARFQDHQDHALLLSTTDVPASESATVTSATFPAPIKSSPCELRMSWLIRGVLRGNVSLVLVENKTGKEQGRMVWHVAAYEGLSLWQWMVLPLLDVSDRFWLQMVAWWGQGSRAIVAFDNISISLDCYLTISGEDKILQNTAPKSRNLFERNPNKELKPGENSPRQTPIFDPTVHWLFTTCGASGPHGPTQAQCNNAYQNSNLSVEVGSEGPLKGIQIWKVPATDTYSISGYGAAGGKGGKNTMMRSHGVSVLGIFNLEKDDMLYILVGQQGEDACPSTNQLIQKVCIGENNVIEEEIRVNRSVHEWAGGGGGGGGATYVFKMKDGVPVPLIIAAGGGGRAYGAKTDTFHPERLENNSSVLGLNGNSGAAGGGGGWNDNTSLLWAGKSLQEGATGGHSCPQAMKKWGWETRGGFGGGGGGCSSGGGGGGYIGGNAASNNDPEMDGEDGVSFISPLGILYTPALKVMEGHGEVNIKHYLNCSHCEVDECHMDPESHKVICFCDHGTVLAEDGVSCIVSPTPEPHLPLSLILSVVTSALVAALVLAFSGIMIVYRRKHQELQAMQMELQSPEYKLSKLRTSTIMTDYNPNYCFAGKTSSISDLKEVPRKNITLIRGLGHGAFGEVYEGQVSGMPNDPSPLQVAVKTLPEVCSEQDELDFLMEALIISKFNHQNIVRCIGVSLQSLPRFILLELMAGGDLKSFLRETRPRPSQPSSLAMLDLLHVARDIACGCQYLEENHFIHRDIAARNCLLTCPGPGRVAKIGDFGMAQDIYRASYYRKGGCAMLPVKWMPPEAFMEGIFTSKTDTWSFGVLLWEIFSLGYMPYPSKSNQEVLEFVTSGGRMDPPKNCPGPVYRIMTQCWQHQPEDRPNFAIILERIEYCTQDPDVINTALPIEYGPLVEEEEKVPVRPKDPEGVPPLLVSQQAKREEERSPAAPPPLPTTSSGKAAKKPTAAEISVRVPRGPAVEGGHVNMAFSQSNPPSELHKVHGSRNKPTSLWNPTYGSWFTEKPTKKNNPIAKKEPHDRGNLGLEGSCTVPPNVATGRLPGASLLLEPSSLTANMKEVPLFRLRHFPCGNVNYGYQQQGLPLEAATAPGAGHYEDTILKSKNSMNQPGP
# off-target kinases [5] = target: off-target kinases (Homo sapiens, UniProt Q13153); conditions: PAK1, ZLYTE, ATP Km app
# off-target kinases (Homo sapiens, UniProt Q13153), sequence (Q13153 whole entry): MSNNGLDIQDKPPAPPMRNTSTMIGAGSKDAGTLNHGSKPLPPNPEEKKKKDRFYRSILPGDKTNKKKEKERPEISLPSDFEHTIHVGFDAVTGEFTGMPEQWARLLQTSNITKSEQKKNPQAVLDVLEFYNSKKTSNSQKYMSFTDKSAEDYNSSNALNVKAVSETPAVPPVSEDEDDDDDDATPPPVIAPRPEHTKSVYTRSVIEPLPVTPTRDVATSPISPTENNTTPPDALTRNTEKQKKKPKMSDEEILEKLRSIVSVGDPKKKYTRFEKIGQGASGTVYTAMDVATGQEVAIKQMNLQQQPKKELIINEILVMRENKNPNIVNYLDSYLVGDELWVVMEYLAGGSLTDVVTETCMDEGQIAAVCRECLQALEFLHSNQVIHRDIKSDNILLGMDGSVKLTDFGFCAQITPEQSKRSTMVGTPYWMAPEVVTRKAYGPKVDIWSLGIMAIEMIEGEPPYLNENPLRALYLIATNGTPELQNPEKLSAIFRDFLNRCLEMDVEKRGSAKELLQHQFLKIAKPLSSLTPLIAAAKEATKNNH
# off-target kinases [6] = target: off-target kinases (Homo sapiens, UniProt P78368); conditions: CSNK1G2 (CK1 gamma 2); Cmpd1 1000 μM; ATP Km app; ZLYTE
# off-target kinases (Homo sapiens, UniProt P78368), sequence (P78368 whole entry): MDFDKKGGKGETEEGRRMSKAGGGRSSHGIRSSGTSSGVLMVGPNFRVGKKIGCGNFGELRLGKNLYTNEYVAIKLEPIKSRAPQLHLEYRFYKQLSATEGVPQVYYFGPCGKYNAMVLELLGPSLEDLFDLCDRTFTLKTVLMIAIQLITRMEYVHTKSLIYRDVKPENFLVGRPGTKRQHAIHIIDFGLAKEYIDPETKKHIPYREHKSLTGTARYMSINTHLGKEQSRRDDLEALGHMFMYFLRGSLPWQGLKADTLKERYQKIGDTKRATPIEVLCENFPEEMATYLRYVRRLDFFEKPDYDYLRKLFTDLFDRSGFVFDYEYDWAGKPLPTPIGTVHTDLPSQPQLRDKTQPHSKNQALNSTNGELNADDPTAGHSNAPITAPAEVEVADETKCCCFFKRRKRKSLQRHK
smiles,measurement,setting,value
"N#Cc1cc(-c2ncnc(Nc3ccc(N4CCN(C5COC5)CC4)cc3)n2)ccc1OC1CCOCC1 [Compound 1, 5-(4-((4-(4-(oxetan-3-yl)piperazin-1-yl)phenyl)amino)-1,3,5-triazin-2-yl)-2-((tetrahydro-2H-pyran-4-yl)oxy)benzonitrile]",inhibition,off-target kinases [1]; read-out: % Inhibition 1,83%
same,inhibition,off-target kinases [1]; read-out: % Inhibition 2,79%
same,inhibition,off-target kinases [1]; read-out: % Inhibition Avg,81%
same,inhibition,off-target kinases [2]; read-out: % Inhibition 1,52%
same,inhibition,off-target kinases [2]; read-out: % Inhibition 2,49%
same,inhibition,off-target kinases [2]; read-out: % Inhibition Avg,51%
same,inhibition,off-target kinases [3]; read-out: % Inhibition 1,53%
same,inhibition,off-target kinases [3]; read-out: % Inhibition 2,52%
same,inhibition,off-target kinases [3]; read-out: % Inhibition Avg,53%
same,inhibition,off-target kinases [4]; read-out: % Inhibition 1,0%
same,inhibition,off-target kinases [4]; read-out: % Inhibition 2,7%
same,inhibition,off-target kinases [4]; read-out: % Inhibition Avg,4%
same,inhibition,off-target kinases [5]; read-out: % Inhibition 1,8%
same,inhibition,off-target kinases [5]; read-out: % Inhibition 2,8%
same,inhibition,off-target kinases [5]; read-out: % Inhibition Avg,8%
same,% Inhibition 1,off-target kinases [6],−7%
same,% Inhibition 2,off-target kinases [6],−16%
same,% Inhibition Avg,off-target kinases [6],−11%
